The results in this text go back to patent publication US9248163B2, “Insulin-like growth factor binding protein 7 for treatment of cancer” (University of Massachusetts, priority 2007, dated 2016).

The test system of experiment [1] is BRAF-MEK-ERK signaling in SK-MEL-28 cells. Description: Immunoblot analysis of BRAF-MEK-ERK signaling (phospho-ERK, activated MEK1/2, RKIP). In kind it is cell-based, human. The method, then:
To prepare cell extracts, cells were lysed in Laemmli buffer; for phospho-proteins, cells were lysed in the presence of a phosphatase inhibitor cocktail (Sigma). To prepare conditioned media, cells were grown in Opti-MEM™ (Invitrogen) for 24 hours, and media was harvested and concentrated using Centricon™ plus 20 tubes (Millipore). Conditioned media was normalized to cell number prior to loading the gel. For the experiments shown in FIGS. 3D and 4C, rIGFBP7 was added to the culture medium at a concentration of 10 μg/ml. For the MEK/RAF inhibitor experiment of FIG. 4D, SK-MEL-28 cells were treated with 2 μg/ml or 10 μg/ml rIGFBP7, 20 μM or 40 μM of the MEK inhibitor PD98054 (Calbiochem), or 5 nM or 10 nM the RAF inhibitor GW5074 (Sigma) for 24 hours prior to harvesting cells. Proteins were resolved by SDS-PAGE and transferred to nitrocellulose. Blots were probed with the following antibodies: α-p16 (Abcam), α-acetylated H3K9 (Upstate), α-IGFBP7 (Santa Cruz), α-SMARCB1 (Abnova), α-BNIP3L (Proscience), α-BRAFV600E (Santa Cruz), α-cleaved caspase-3 p11 (Santa Cruz), α-β-actin (Sigma), α-phospho-ERK (Cell Signaling) or α-ERK (Cell Signaling).
To test this idea, rIGFBP7 was added to BRAFV600E-positive SK-MEL-28 melanoma cells, and the levels of total and activated ERK (phospho-ERK) were analyzed.
(A western blot detects proteins with antibodies after separation by electrophoresis.)

For experiment [2], the system named is melanocytes. Description: Senescence-associated β-galactosidase assay. The following applies: rIGFBP7 10 μg/ml for 14 days; growth-arrested cells. The class given is cell-based, human. The method, then: Melanocytes infected with a retrovirus expressing either vector or BRAFV600E, or melanocytes treated with BRAFV600E/melanocyte CM or rIGFBP7 (10 μg/ml) for 14 days were washed twice with PBS (5 minutes at room temperature), fixed with 3% formaldehyde (5 minutes at room temperature), and washed three more times with PBS. Cells were then incubated at 37° C. (0% CO2) overnight in SA-β-Gal stain solution (1 mg/mL X-Gal (5-bromo-4-chloro-3-indoyl b-D-galactoside), 40 mM citric acid/sodium phosphate (pH 6.0), 5 mM potassium ferrocyanide, 5 mM potassium ferricyanide, 150 mM NaCl and 2 mM MgCl2). Cells were washed with PBS and visualized on a Zeiss Axiovert™ 40 CFL microscope. Images were captured using QCapture™ Pro version 5 software (QImaging Corporation).

The subject of experiment [3] is NCI 60 panel of human cancer cell lines. The experiment in a line: Apoptosis (Annexin V-PE) in the NCI 60 panel of human cancer cell lines. The class given is cell-based. The method, then:
The ability of IGFBP7 to induce apoptosis was assessed in the NCI 60 panel of human cancer cell lines, which were obtained from the National Cancer Institute (NCI). The panel includes cell lines corresponding to breast (MDA-MB-231, HS 578T, BT-549, T47-D, MCF7), ovarian (NCI-ADR-RES, OVCAR-3, OVCAR-5, OVCAR-8, OVCAR-4, SK-OV-3, IGROV1), prostate (DU-145, PC-3), renal (TK-10, CAKI-1, A496, ACHN, RXF-393, 786-O, SN12C, UO-31), non-small cell lung (NCI-H460, HOP-62, A549-ATCC, NCI-H226, EKVX, NCI-H322M, HOP-92, NCI-H522), central nervous system (CNS) (SF-295, SF-268, SF-539, SNB-19, SNB-75, U251), colon (HCT-15, SW-620, COLO205, HT29, HCC-2998, HCT-116, SM-12), melanoma (SK-MEL-28, SK-M2L-2, LOX IMV1, M14, MALM-3M, SK-MEL-5, UACC-257, UACC-62, MDA-MB-435), and hematopoietic (CCRF-CEM, K-562, MOLT-4, SR, RPMI-8226) cancers. These cell lines have been extensively characterized and their mutational status for a number of human cancer genes, including BRAF and RAS (e.g., NRAS, KRAS, or HRAS), is known (see the World Wide Web at discover.nci.nih.gov/cellminer/mutationGeneLoad.do).
rIGFBP7 was expressed and purified as described above. To monitor apoptosis following rIGFBP7 treatment, 5×10^5 cells were treated with rIGFBP7 (10 μg/ml) for 24 hours and stained for Annexin V-PE. The results are shown in FIG. 11A. rIGFBP7 induced apoptosis in 11/11 (100%) of the cell lines that contained a BRAF mutation and 8/13 (61.5%) of the cell lines that contained a RAS mutation. One cell line contained both a BRAF and a RAS mutation, and this cell line was susceptible to rIGFBP7-mediated apoptosis.

For experiment [4], the system named is primary melanocytes. Description: Proliferation assay of primary melanocytes (trypan blue exclusion). Conditions: 14 days after treatment. In kind it is cell-based, human. The method, then: For the proliferation assay shown in FIG. 1B, 1×10^4 cells stably expressing an shRNA were cultured in 12-well plate format, infected with BRAFV600E-expressing retrovirus and after 14 days stained with crystal violet. For all other quantitative proliferation assays, cell viability was measured by trypan blue exclusion test at the time point indicated in the relevant figure legend. Values were expressed as percent cell growth, as described in the relevant figure legend. For the proliferation assays shown in FIG. 2A, CM was replenished every 3 days, and proliferation was measured after a total of 14 days of CM treatment. Unless otherwise stated, rIGFBP7 was added to the culture medium at a concentration of 10 μg/ml.
To confirm that IGFBP7 could block cellular proliferation, purified recombinant IGFBP7 (rIGFBP7) was purified from baculovirus-infected insect cells. […] Collectively, the results of FIGS. 2A-2D indicate that following expression of BRAFV600E, melanocytes synthesize and secrete increased amounts of IGFBP7, which then acts through an autocrine/paracrine pathway to induce senescence.

“rIGFBP7: purified recombinant human IGFBP7, C-terminal Flag-tagged, from baculovirus-infected Sf9 insect cells”: in experiment [1], the “growth factor-induced ERK activation” value was “blocked”. Also, in experiment [1] (SK-MEL-28 cells), the “RAF inhibitory protein (RKIP) expression” value is “upregulation” and the “levels of activated MEK1/2” value is reported as “decreased levels”. Also, in experiment [1] (SK-MEL-28 cells, 24 hours, 0.2-10 μg/ml), the phospho-ERK level entry is “dose-dependent loss of phospho-ERK”. In addition, in experiment [2], the “senescence-associated β-galactosidase staining” value is listed as “stained positively”. The “cell lines in which apoptosis was induced” value in experiment [3] (cell lines that contained a BRAF mutation (11/11), 10 μg/ml, 24 hours) turned out to be 100%. Moreover, the “cell lines in which apoptosis was induced” value in experiment [3] (cell lines that contained a RAS mutation (8/13), 10 μg/ml, 24 hours) stood at 61.5%. Further, the “cell lines susceptible to apoptosis” value in experiment [3] (cell lines without a BRAF or RAS mutation (4/34), 10 μg/ml, 24 hours) was 11.8%. The “susceptibility to rIGFBP7-mediated apoptosis” value in experiment [3] (one cell line with both a BRAF and a RAS mutation) was “susceptible”. Besides, the “proliferation of primary melanocytes” value in experiment [4] is on record as “blocked proliferation of primary melanocytes in a dose-dependent manner”.
